Assay results reported in patent US20240124479A1, “PYRIMIDINE CARBOXAMIDE COMPOUND AND USE THEREOF” (SHANGHAI MEIYUE BIOTECH DEVELOPMENT CO. LTD, priority 2020, published 2024).
Read-outs that look alike come from different tables or passages of the source.

How the values were obtained:
human plasma Vanin-1 = human plasma Vanin-1 (Homo sapiens (Human), UniProt O95497); assay: Human plasma Vanin-1 enzyme activity inhibition assay; format: biochemical; settings: 100-fold diluted human plasma, substrate 25 μM, reading at 30th minute; read-out: hPlasma IC50
[1] = In vivo pharmacokinetic evaluation in mice; set-up: clearance: unit not given here; settings: for AUC(0-t): read-out: Area under the curve AUC0-7 h; for half-life: read-out: Half-life T1/2 (converted); for Cmax: read-out: Peak concentration Cmax
Source text: The vehicle used in the experiment was: DMSO: Solutol: PBS=5%:25%:70% (v/v/v). Preparation method: The required compound was weighed accurately, added with a certain volume of DMSO in a certain proportion, vortex-mixed until completely dissolved, then added successively with Solutol and PBS according to the above proportion, and mixed well. The vehicles used in the intravenous (iv) administration group and oral (po) administration group were the same vehicles in the experiment. The intravenous dose was 2 mpk and the oral dose was 5 mpk. Experimental blood collection time points: IV group: 0.083, 0.25, 0.5, 1, 2, 4, 7, 24 h. PO group: 200 μL of whole blood was collected from jugular vein at each time point of 0.25, 0.5, 1, 2, 4, 7 and 24 h, anticoagulated with EDTA-K2, and immediately centrifuged at 4000 rpm for 5 minutes at 4° C. The supernatant was taken and the samples were frozen and stored in a refrigerator at −80° C. Processing of plasma samples: the sample was precipitated with ACN/MeOH (1:1, v/v) precipitant containing internal standard, then centrifuged at 14000 rpm for 5 minutes. The supernatant was taken into LC-MS/MS (AB Triple Quard 5500) for analysis to obtain plasma concentrations, and parameters were calculated by the non-compartmental model of Winnolin 8.1 version.

CYP 2C19 = CYP 2C19 (Homo sapiens (Human), UniProt P33261); assay: CYP enzyme inhibitory activity IC50 assay (cocktail method), 2C19; format: in vitro ADME; settings: microsomes 0.1 mg/mL, probe Mephenytoin
Source text: (§1) […]. […] […].

CYP 2C9 = CYP 2C9 (Homo sapiens (Human), UniProt P11712); assay: CYP enzyme inhibitory activity IC50 assay (cocktail method), 2C9; format: in vitro ADME; settings: microsomes 0.1 mg/mL, probe Diclofenac
Source text: as §1

CYP enzymes = assay: CYP enzyme inhibition, overall statement on tested CYP enzymes; format: in vitro ADME; settings: 1A2, 2C9, 2C19, 2D6, 3A4; result in words
Source text: as §1

[2] = In vitro liver microsome stability, overall statement; format: in vitro ADME; settings: human, mouse, rat liver microsomes; result in words
Method: (§2) PBS Buffer was 50 mM K2HPO4 buffer.

[3] = In vitro liver microsome stability assay, human; format: in vitro ADME; settings: liver microsomes, read-out: T1/2 Human
Method: as §2

[4] = In vitro liver microsome stability assay, mouse; format: in vitro ADME; settings: liver microsomes, read-out: T1/2 Mouse
Method: as §2

CYP 2D6 = CYP 2D6 (Homo sapiens (Human), UniProt P10635); assay: CYP enzyme inhibitory activity IC50 assay (cocktail method), 2D6; format: in vitro ADME; settings: microsomes 0.1 mg/mL, probe Dextromethorphan
Source text: as §1

[5] = In vitro liver microsome stability assay, rat; format: in vitro ADME; settings: liver microsomes, read-out: T1/2 Rat
Method: as §2

CYP3A4 = CYP3A4 (Homo sapiens, UniProt P08684); assay: in vitro; settings: microsomes
CYP 1A2 = CYP 1A2 (Homo sapiens (Human), UniProt P05177); assay: CYP enzyme inhibitory activity IC50 assay (cocktail method), 1A2; format: in vitro ADME; settings: microsomes 0.1 mg/mL, probe Phenacetin
Source text: as §1

[6] = mouse, plasma, 2 mg/kg, intravenous injection, 2 mpk
[7] = mouse, plasma, po, 5 mg/kg, intragastric administration, 5 mpk

human plasma Vanin-1, sequence (O95497 22-513): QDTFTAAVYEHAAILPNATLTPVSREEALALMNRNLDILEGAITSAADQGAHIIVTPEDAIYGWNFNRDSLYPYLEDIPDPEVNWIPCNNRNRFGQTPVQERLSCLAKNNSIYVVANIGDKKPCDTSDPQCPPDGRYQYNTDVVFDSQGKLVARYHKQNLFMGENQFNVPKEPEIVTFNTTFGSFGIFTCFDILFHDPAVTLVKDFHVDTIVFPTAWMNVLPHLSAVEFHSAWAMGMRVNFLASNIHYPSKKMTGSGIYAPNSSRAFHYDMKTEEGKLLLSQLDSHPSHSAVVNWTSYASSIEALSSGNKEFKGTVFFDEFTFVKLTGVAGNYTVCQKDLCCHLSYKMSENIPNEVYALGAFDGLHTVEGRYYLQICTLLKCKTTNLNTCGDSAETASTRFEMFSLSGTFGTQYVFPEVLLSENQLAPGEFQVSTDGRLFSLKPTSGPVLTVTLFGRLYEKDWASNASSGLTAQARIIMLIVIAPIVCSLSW
CYP 1A2, sequence (P05177 whole entry): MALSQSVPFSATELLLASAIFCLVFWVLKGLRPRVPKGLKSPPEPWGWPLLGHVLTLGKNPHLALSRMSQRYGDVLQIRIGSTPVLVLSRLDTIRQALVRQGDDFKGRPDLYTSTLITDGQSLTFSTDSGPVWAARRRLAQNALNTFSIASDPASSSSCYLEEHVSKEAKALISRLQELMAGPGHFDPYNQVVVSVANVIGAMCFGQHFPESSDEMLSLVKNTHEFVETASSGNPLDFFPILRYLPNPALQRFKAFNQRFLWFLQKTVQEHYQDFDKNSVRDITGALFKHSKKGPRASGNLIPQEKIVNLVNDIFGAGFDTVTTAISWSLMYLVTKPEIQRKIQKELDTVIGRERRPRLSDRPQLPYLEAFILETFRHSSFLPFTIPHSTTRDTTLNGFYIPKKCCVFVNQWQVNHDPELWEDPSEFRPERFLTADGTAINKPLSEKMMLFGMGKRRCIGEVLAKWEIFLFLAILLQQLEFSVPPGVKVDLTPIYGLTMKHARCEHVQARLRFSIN
CYP 2C19, sequence (P33261 whole entry): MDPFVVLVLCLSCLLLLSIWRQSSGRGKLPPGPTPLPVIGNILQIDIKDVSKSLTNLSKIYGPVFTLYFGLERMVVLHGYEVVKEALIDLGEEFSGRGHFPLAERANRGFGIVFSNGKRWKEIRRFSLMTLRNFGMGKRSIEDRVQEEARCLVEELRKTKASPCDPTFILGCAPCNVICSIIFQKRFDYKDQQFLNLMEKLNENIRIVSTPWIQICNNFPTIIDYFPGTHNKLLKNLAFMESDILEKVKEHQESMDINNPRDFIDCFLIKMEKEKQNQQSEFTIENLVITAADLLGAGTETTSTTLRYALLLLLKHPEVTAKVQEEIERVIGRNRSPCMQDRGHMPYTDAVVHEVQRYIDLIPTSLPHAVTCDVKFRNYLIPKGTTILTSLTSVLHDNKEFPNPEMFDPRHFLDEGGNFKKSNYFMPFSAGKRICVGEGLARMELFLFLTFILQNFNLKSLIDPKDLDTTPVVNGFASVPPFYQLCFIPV
CYP 2C9, sequence (P11712 whole entry): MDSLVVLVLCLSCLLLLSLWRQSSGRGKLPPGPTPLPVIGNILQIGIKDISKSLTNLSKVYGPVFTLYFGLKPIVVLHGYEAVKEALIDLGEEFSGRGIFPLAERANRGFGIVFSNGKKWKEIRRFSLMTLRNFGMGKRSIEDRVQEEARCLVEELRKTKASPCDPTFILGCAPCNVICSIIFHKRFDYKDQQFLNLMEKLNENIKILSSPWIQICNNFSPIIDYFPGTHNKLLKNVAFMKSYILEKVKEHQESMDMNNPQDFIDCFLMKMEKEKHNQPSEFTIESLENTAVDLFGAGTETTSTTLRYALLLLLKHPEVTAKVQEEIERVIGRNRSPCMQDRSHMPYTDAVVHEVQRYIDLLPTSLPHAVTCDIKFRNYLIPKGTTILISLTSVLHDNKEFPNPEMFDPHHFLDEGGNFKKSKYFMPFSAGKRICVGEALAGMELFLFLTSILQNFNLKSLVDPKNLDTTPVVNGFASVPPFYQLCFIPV
CYP3A4, sequence (P08684 2-503 limits assumed): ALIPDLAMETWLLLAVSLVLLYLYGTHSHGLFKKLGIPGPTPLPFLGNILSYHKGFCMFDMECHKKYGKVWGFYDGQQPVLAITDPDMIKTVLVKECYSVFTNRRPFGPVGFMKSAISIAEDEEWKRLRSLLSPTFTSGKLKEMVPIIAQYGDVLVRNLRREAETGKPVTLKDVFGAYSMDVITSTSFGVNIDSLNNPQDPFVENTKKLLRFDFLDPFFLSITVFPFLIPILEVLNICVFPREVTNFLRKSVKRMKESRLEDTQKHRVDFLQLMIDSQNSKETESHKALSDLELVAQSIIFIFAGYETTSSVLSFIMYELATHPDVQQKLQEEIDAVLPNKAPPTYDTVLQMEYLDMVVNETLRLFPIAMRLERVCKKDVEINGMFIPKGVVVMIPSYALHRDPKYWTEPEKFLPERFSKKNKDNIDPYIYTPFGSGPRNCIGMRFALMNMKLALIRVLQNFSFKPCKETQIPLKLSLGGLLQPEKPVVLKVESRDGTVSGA
CYP 2D6, sequence (P10635 whole entry): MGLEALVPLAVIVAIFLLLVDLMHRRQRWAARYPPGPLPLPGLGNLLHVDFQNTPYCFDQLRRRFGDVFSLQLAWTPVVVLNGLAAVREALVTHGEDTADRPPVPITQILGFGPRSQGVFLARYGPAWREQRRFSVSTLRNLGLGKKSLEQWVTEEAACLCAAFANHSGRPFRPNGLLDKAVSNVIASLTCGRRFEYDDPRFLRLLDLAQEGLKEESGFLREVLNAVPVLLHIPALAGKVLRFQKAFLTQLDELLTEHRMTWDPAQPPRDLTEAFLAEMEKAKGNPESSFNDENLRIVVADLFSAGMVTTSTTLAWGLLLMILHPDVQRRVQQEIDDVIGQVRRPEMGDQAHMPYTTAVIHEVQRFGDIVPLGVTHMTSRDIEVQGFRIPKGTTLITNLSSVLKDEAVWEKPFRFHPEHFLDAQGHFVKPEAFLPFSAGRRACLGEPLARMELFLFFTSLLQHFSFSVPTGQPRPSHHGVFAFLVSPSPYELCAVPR

CC(Nc1ncc(C(=O)N2CCC3(CCOCC3)C2)cn1)c1ccccc1 (stereo not shown) [Compound 6]
IC50 (human plasma Vanin-1): 0.0016 µM

O=C(c1cnc(NCc2ccc(F)cc2F)nc1)N1CCC2(CCOCC2)C1 [Compound 12]
IC50 (human plasma Vanin-1): 0.0079 µM

CC(=O)N(C)[C@H]1CCN(C(=O)c2cnc(N[C@H](C)c3ccc(C(F)(F)F)cc3F)nc2)C1 [Compound 41-P2]
Area under the curve AUC0-7 h ([1]; intragastric administration, 5 mpk): 10656.5 ng·h/mL
AUC(0-t) [1, 6]: 4960 ng·h/mL
clearance ([1]; mouse, plasma, 2 mg/kg, intravenous injection, 2 mpk, read-out: Clearance rate CL (converted)): 0.112
Vd ([1]; mouse, plasma, 2 mg/kg, intravenous injection, 2 mpk, read-out: Distributed solvent Vd): 1.26 L/kg
half-life [1, 6]: 2.8 h
Cmax [1, 6]: 2140 ng/mL
bioavailability ([1]; mouse, plasma, oral, intragastric administration 5 mpk vs intravenous 2 mpk, read-out: Bioavailability F %): 86%
AUC(0-t) [1, 7]: 10700 ng·h/mL
half-life [1, 7]: 5.6 h
Cmax [1, 7]: 1540 ng/mL
IC50 (CYP 2C19): > 50 µM
IC50 (CYP 2C9): 45.6 µM
inhibitory effect on the tested CYP enzymes (CYP enzymes): basically no inhibitory effect
liver microsome stability [2]: remarkable stability
half-life at 1 μM [3]: > 4.66 h
half-life at 1 μM [4]: 1.65 h
IC50 (CYP 2D6): > 50 µM
half-life at 1 μM [5]: 3.31 h
IC50 at 10 min (CYP3A4): > 50 µM
IC50 (CYP 1A2): > 50 µM
